Experimental data: US20170296668A1, “METHODS OF INCREASING SOLUBILITY OF POORLY SOLUBLE COMPOUNDS AND METHODS OF MAKING AND USING FORMULATIONS OF SUCH COMPOUND” (VIZURI HEALTH SCIENCES LLC, priority 2009, published 2017)
Read-outs that look alike come from different tables or passages of the source. One block for each compound: values may come before it.

Tests used:
[1] = cited from earlier work; for Lit. H2O Sol. -: Table III; for WATER SOLUBILITY (mg/ml): saturation concentrations, published sources
[2] = Solubility in PEG 400 / PEG 300 via thermal treatment process; conditions: for Flavonoid in Solvent -: PEG-400, HPLC, thermal treatment concentrate; for Jordi PEG400 Results / PEG400 Sol. Conc.: Table III
[3] = Solubility in Polysorbate 80 via thermal treatment process; conditions: for Prepared Thermal Treatment Concentration in Polysorbate 80: Table XV; for solubility: polysorbate 80, organic solvent or mixture, thermodynamic from solid; for PS80 Sol. Conc. - / Jordi PS800 Results: Table III; for Flavonoid in Solvent -: PS80, HPLC, thermal treatment concentrate
[4] = Boiling of flavonoid in H2O & PS80 slurry; format: physicochemical; conditions: 2. H2O & PS80 slurry boiled; for solubility: water and polysorbate 80 slurry, aqueous with cosolvent or surfactant or cyclodextrin, thermodynamic from solid, read-out: SOLUBLE CONC. RANGE
[5] = Solubility of concentrates in oil solvents; format: physicochemical
[6] = Nonoxynol-9 concentrates via thermal treatment process; format: physicochemical; conditions: Table XVI
[7] = Solubility in Ceteareth-20 via thermal treatment process; conditions: thermal treatment >200° C.
[8] = Aqueous solution clarity: water added to concentrate vs non-concentrate method
[9] = Supersaturation test by addition of a crystal
[10] = test system: EpiDerm tissue; format: cell-based; conditions: time to reduce tissue viability to 50%; unaudited values
[11] = PS80, 1. Thermal Treatment method

Compound: COc1ccc([C@@H]2CC(=O)c3c(O)cc(O[C@@H]4O[C@H](CO[C@@H]5O[C@@H](C)[C@H](O)[C@@H](O)[C@H]5O)[C@@H](O)[C@H](O)[C@H]4O)cc3O2)cc1O [Hesperidin]
Lit. H2O Sol. - [1]: 0.05 to 3 mg/mL
WATER SOLUBILITY (mg/ml) [1]: from 0.05 to 3 mg/ml
Molar Ratio PEG400/API (mole/mole) [2]: 21.2 mole/mole
Flavonoid in Solvent - [2]: 81.0 ± 8.0 mg/mL
Jordi PEG400 Results ([2]; thermal treatment): 81 mg/mL
SOLUBLE CONC. RANGE [3, 11]: < 20 mg/mL
SOLUBLE CONC. RANGE [4]: < 10 mg/mL
SOLUBLE CONC. RANGE (% wt/wt) [4]: < 1%

Compound: O=c1cc(-c2ccc(O)c(O)c2)oc2cc(O)cc(O)c12 [Luteolin, 3′,4′,5,7-tetrahydroxyflavone]
Lit. H2O Sol. - [1]: 0.38 mg/mL
Literature Solubility in H2O @ 25° C. ([1]; Table XV): 0.14 mg/mL
Literature Solubility in H2O @ 25° C. ([1]; Table XVI): 0.14 mg/mL
solubility in the test oils ([5]; mineral, jojoba, canola, borage oils): insoluble
concentration of concentrate in polyglyceryl-4 oleate ([5]; room temperature): 10 mg/mL
Molar Ratio PEG400/API (mole/mole) [2]: 11.1 mole/mole
Flavonoid in Solvent - [2]: 72.5 mg/mL
Jordi PEG400 Results ([2]; thermal treatment): 72.5 mg/mL
PEG400 Sol. Conc. ([2]; thermal treatment): 70 to 90 mg/mL
Prepared Thermal Treatment Concentration in Nonoxynol-9 [6]: 50 mg/mL
SOLUBLE CONC. RANGE (% wt/wt) [3, 11]: > 8%
Prepared Thermal Treatment Concentration in Polysorbate 80 [3]: 50 mg/mL
solubility [3]: > 80 mg/mL
PS80 Sol. Conc. - ([3]; thermal treatment): >80 mg/mL
Conc. In Ceteareth-20 [7]: ~10 mg/mL
non-concentrate method: compound, nonoxynol-9 and 17 ml water heated to near boiling, cooled [8]: did precipitate
Comments when 17 ml of H2O was added to 3 gms of the concentrate ([8]; Nonoxynol-9 concentrate): A clear soln formed.
non-concentrate method: compound, polysorbate 80 and 17 ml water heated to near boiling, cooled [8]: did precipitate
Comments when 17 ml of H2O was added to 3 gms of the concentrate ([8]; Polysorbate 80 concentrate): A clear soln formed.
SOLUBLE CONC. RANGE (% wt/wt) [4]: ≤ 5%
solubility [4]: ≤ 50 mg/mL

Compound: Cc1cccc(Nc2ccccc2C(=O)O)c1C [Mefenamic Acid, reference compound]
Literature Solubility in H2O @ 25° C. ([1]; Table XV): 0.004 mg/mL
Literature Solubility in H2O @ 25° C. ([1]; Table XVI): 0.004 mg/mL
PEG400 Solubility: amount solubilized, remained solubilized @ Room Temp. ([2]; thermal treatment): 1 wt %
PEG400 Solubility: supersaturation ([9]; PEG400 solution): Not Sup. Sat.
PS80 Solubility: supersaturation ([9]; PS80 solution): Not Sup. Sat.
Prepared Thermal Treatment Concentration in Nonoxynol-9 [6]: 10 mg/mL
Prepared Thermal Treatment Concentration in Polysorbate 80 [3]: 10 mg/mL
PS80 Solubility: amount solubilized, remained solubilized @ Room Temp. ([3]; thermal treatment): 1 wt %
non-concentrate method: compound, nonoxynol-9 and 17 ml water heated to near boiling, cooled [8]: did precipitate
Comments when 17 ml of H2O was added to 3 gms of the concentrate ([8]; Nonoxynol-9 concentrate): A clear soln formed.
PEG400 Solubility: behaviour when H2O was added ([8]; PEG400 solution + H2O): Nost Mefenamic Acid ppt. out when H2O was added
PS80 Solubility: behaviour when H2O was added ([8]; PS80 solution + H2O): Nost Mefenamic Acid dissolved when H2O was added
non-concentrate method: compound, polysorbate 80 and 17 ml water heated to near boiling, cooled [8]: did precipitate
Comments when 17 ml of H2O was added to 3 gms of the concentrate ([8]; Polysorbate 80 concentrate): A clear soln formed.

Compound: O=c1c(O)c(-c2ccc(O)c(O)c2)oc2cc(O)cc(O)c12 [Quercetin]
Lit. H2O Sol. - [1]: <1 mg/mL
WATER SOLUBILITY (mg/ml) [1]: *<1 mg/ml
PEG400 Sol. Conc. ([2]; thermal treatment): 60 to 80 mg/mL
supersaturation in Ceteareth-20 ([9]; Room Temp.): solubilization. Not Super Saturated at Room Temp. via
SOLUBLE CONC. RANGE (% wt/wt) [3, 11]: > 7%
Flavonoid in Solvent - [3]: 65.0 mg/mL
solubility [3]: > 70 mg/mL
Jordi PS800 Results ([3]; thermal treatment): 65 mg/mL
PS80 Sol. Conc. - ([3]; thermal treatment): >80 mg/mL
Conc. In Ceteareth-20 [7]: ~10 mg/mL
SOLUBLE CONC. RANGE (% wt/wt) [4]: <<7%

PEG400 Sol. Conc. ([2]; thermal treatment): 80 to 100 mg/mL
SOLUBLE CONC. RANGE (% wt/wt) [3, 11]: > 8%
Flavonoid in Solvent - [3]: 127.5 mg/mL
solubility [3]: > 80 mg/mL
Jordi PS800 Results ([3]; thermal treatment): 127.5 mg/mL
PS80 Sol. Conc. - ([3]; thermal treatment): >80 mg/mL
Compound: Oc1ccc(C=Cc2cc(O)cc(O)c2)cc1 [Resveratrol]
WATER SOLUBILITY (mg/ml) [1]: *0.1 to 0.3 mg/ml

Compound: C[C@@H]1O[C@@H](OC[C@H]2O[C@@H](Oc3c(-c4ccc(O)c(O)c4)oc4cc(O)cc(O)c4c3=O)[C@H](O)[C@@H](O)[C@@H]2O)[C@H](O)[C@H](O)[C@H]1O [Rutin]
SOLUBLE CONC. RANGE (% wt/wt) [3, 11]: < 1%
Flavonoid in Solvent - [3]: 14.3 mg/mL
solubility [3]: < 10 mg/mL
solubility [4]: < 15 mg/mL

Compound: Triton X-100
ET50 [10]: 5.9 h
